# Several values for one entry are separate records, joined by “and”; a condition that tells them apart may be missing. Identical values can stand only once. Entries after “also recorded” stand apart in the source; their conditions may differ. Like-named read-outs stand apart in the source and are kept apart here. Marks after values point to notes of the source that are not given here.
# B1: CphB: intracellular cyanophycinase of Synechocystis sp. PCC 6803 (protein, UniProt P73832 2-271, looked up)
# Cyanophycinase: PLSSQPAILIIGGAEDKVHGREILQTFWSRSGGNDAIIGIIPSASREPLLIGERYQTIFSDMGVKELKVLDIRDRAQGDDSGYRLFVEQCTGIFMTGGDQLRLCGLLADTPLMDRIRQRVHNGEISLAGTSAGAAVMGHHMIAGGSSGEWPNRALVDMAVGLGIVPEIVVDQHFHNRNRMARLLSAISTHPELLGLGIDEDTCAMFERDGSVKVIGQGTVSFVDARDMSYTNAALVGANAPLSLHNLRLNILVHGEVYHQVKQRAFPRVT
# Assays:
# [1] = system: purified CphEal from P. alcaligenes strain DIP1; assay: Effect of group-specific inhibitors on purified CphEal, activity on CGP-overlay agar plates; type: biochemical; details: for Inhibition of CphEal (in words): assayed on CGP-overlay agar plates and by HPLC analysis
# Procedure: (§1) To reveal the effect of enzyme inhibitors on the purified CphEal, 50 μl aliquots of the purified enzyme stalk solution were added to 450 μl of Na-phosphate buffer (50 mM) and incubated for 2 h at 30° C. in the presence of one of the following Group-specific inhibitors; Leupeptin (thiol-proteases), EDTA (metalloproteases), Pefabloc (serine-proteases), PMSF (serine-proteases) or N-bromosuccinimide (tryptophan residues).
# (§2) To gain information on the catalytic mechanism of CphEal, inhibitor experiments were conducted employing different group-specific inhibitors (Table 1).
# [2] = system: purified CphEal from P. alcaligenes strain DIP1; assay: Effect of group-specific inhibitors on purified CphEal, HPLC analysis of CGP degradation products; type: biochemical; details: for HPLC analysis (Inhibition %) high inhibitor concentration: high concentration (mM): Leupeptin 0.01, EDTA 60, Pefabloc 80, PMSF 10, NBS 5; for HPLC analysis (Inhibition %) high inhibitor concentration / HPLC analysis (Inhibition %) low inhibitor concentration: 2 h at 30° C., refers to control without inhibitor; for HPLC analysis (Inhibition %) low inhibitor concentration: low concentration (mM): Leupeptin 0.001, EDTA 30, Pefabloc 8, PMSF 1, NBS 1
# Procedure: as §1, §2
# [3] = low dose intravenous (IV) infusion; cited from earlier work
# [4] = system: Caco2 cells (human-colon epithelial adenocarcinoma cells); details: Caco-2, 113 h
# Procedure: (§3) A Dulbecco's Modified Eagle Medium (DMEM) containing 20% Fetal Calf Serum (FCS) and 1% of 2 mM Glutamine solution was used as cultivation medium. About 7000 Caco2 cells per well were disseminated in a 24-well plate and incubated at 37° C. under an atmosphere of 5% CO2 and about 98% humidity. The cells were checked microscopically on a daily basis until forming monolayer after nearly 50 h. […] A well line was supplied with fresh 700 μl of the incubation medium without the latter additives and was considered as control. Samples were taken after incubation periods of 0, 13, 22, 67 and 113 h and were analyzed by HPLC as described by Sallam and Steinbüchel (J. App. Microbiol. DOI: 10.1111/j.1365-2672.2009.04221.x) to determine the change of concentrations of the tested dipeptides and amino acids.
# [5] = 250 mg/kg/day oral for seven days, five healthy subjects aged 20 to 35; cited from earlier work
# [6] = system: Caco2 cells (human-colon epithelial adenocarcinoma cells); assay: Absorption of CGP dipeptides by Caco2-cell cultures; details: after 113 h of incubation; medium with 350 μg/ml CGP dipeptides (90% Asp-Arg: 10% Asp-Lys)
# Procedure: as §3
# [7] = system: P. alcaligenes strain DIP1; assay: Induction of CphEal production in cultures of strain DIP1; type: cell-based
# Procedure: The activity of the cyanophycinase (CphEal) was inspected by formation of degradation halos on CGP-overlay agar plates by small aliquots of concentrated enzyme solutions, for this, 5 ml culture samples were centrifuged at 2800×g for 30 min (Megafuge 1.0 R, Heraeus Sepatech GmbH, Osterode, Germany) and 4 ml of the resulting supernatant were concentrated 100 folds by ultrafiltration. For the quantitative determination of the enzyme in culture samples, a photometric method was developed as follows; 2 μl of the concentrated culture supernatant were added to 1 ml of a CGP suspension (100 mg l^−1) and incubated at 30° C. for 30 min in a tube rotator (3 rpm, type 502 S, Watson-Marlow GmbH, Rommerskirchen, Germany). Finally, OD600 nm of samples was measured to indicate the decrease in CGP amount due to degradation; this in turn was used to indicate the concentration of CphEal in solutions through the respective calibration curve.
# To conclude the optimum cultivation conditions for maximum production of CphEal by strain DIP1, cells were cultivated on different concentrations of citrate under optimum growth conditions, when cells reached the stationary phase; CphEal production was induced by the addition of 0.25 g CGP.
# During the following 5 h, supernatant samples were concentrated (100 folds) and screened for degradation activity on CGP-overlay agar plates as well as photometrically.
# All inductors were tested first at a concentration of 0.25 g l^−1 and CphEal production was assayed on CGP-overlay agar plates and also photometrically.
# CGP = details: data from literature, cited from earlier work
molecule,measurement,setting,value
CC(=O)N[C@@H](CC(C)C)C(=O)N[C@@H](CC(C)C)C(=O)N[C@H](C=O)CCCNC(=N)N [Leupeptin],Formation of degradation halos by CphEal on CGP-overlay agar plates in presence of inhibitor,[1],no activity inhibition
same,Formation of degradation halos by CphEal on CGP-overlay agar plates in presence of inhibitor,[1]; listed as leupeptin,not affected
same,HPLC analysis (Inhibition %) high inhibitor concentration,[2],39%
same,HPLC analysis (Inhibition %) low inhibitor concentration,[2],10%
O=C(O)CN(CCN(CC(=O)O)CC(=O)O)CC(=O)O [EDTA],Formation of degradation halos by CphEal on CGP-overlay agar plates in presence of inhibitor,[1],no activity inhibition; also recorded: not affected
same,HPLC analysis of inhibitor-treated samples (in words),[2],showed inhibition
same,HPLC analysis (Inhibition %) high inhibitor concentration,[2],75^c %
same,HPLC analysis (Inhibition %) low inhibitor concentration,[2],65^c %
same,"Inhibition of the CGPase, HPLC analysis of samples treated with EDTA",[2]; stated to be due to precipitates during OPA-derivatization,about 75%
"N=C(N)NCCC[C@H](N)C(=O)O [free arginine, L-arginine]",Serum GH levels,[3],significant increase
same,Absorption by Caco2 cells (HPLC analysis of the medium samples),[4],41%
L-Arginine-L-Aspartate [arginine aspartate],Rise in GH during slow wave sleep,[5],60%
"NCCCC[C@H](N)C(=O)O [free L-lysine, L-lysine]",Absorption by Caco2 cells (HPLC analysis of the medium samples),[4],51%
"NCCCC[C@H](NC(=O)C[C@H](N)C(=O)O)C(=O)O [cyanophycin Asp-Lys dipeptides, β-aspartate-lysine]",Absorption by Caco2 cells (HPLC analysis of the medium samples),[6],68%
N[C@@H](CC(=O)O)C(=O)O [L-aspartic acid],CphEal production after induction in comparison to cultures induced with optimum CGP concentration (0.05 g l^−1),"[7]; 4 g l^−1 aspartate, 5 h",only the third
same,Time after induction at which maximum CphEal production was obtained,[7]; at optimum inductor concentration,5 h
same,Inductor concentration giving maximum CphEal production,[7]; cultures of strain DIP1 under optimal production conditions,4 g/L
same,Induction of CphEal production,"[7]; inductors tested at 0.25 g l^−1, CGP-overlay agar plates and photometrically",induced significant amounts
"O=C1CCC(=O)N1Br [NBS, N-bromosuccinimide]",Inhibition of CphEal (in words),[1],totally inhibited; also recorded: total inhibition
same,HPLC analysis (Inhibition %) high inhibitor concentration,[2],100%
same,HPLC analysis (Inhibition %) low inhibitor concentration,[2],100%
"Cl.NCCc1ccc(S(=O)(=O)F)cc1 [Pefabloc ®, 4-(2-aminoethyl) benzensulfonylfluoride•HCl]",Inhibition of CphEal (in words),[1]; listed as Pefabloc,strongly inhibited
same,Inhibition of CphEal (in words),[1]; listed as Pefabloc®,largely inhibited
same,HPLC analysis (Inhibition %) high inhibitor concentration,[2],100%
same,HPLC analysis (Inhibition %) low inhibitor concentration,[2],91%
"O=S(=O)(F)Cc1ccccc1 [PMSF, Phenylmethylsulfonylfluoride]",Inhibition of CphEal (in words),[1],largely inhibited; also recorded: strongly inhibited
same,HPLC analysis (Inhibition %) high inhibitor concentration,[2],57%
same,HPLC analysis (Inhibition %) low inhibitor concentration,[2],0%
"NC(N)=NCCC[C@H](NC(=O)C[C@H](N)C(=O)O)C(=O)O [cyanophycin Asp-Arg dipeptides, β-aspartate-arginine]",Absorption by Caco2 cells (HPLC analysis of the medium samples),[6],approximately 60%
B1,Mechanism,CGP; cell wrapped: Exo-peptidase,Exo-
same,CGP degradation products,CGP,β-Asp-Arg
same,Inhibitors,CGP,"PMSF, and 3,4-dichloro- and Pefabloc ®,"
same,Optimum pH range,CGP,7-8^
same,Optimum temperature,CGP,35 °C
